Assay results from BindingDB's records for doi:10.3109/14756366.2013.813942 (Istituto di Biostrutture e Bioimmagini-CNR, 2014).
Counter-ions that a name gives are not always drawn.

Target: T1, Carbonic anhydrase [110-330] (Coastal plain yellowtops, UniProt P46510)
T1 construct: 110-330
T1 sequence (P46510 whole entry): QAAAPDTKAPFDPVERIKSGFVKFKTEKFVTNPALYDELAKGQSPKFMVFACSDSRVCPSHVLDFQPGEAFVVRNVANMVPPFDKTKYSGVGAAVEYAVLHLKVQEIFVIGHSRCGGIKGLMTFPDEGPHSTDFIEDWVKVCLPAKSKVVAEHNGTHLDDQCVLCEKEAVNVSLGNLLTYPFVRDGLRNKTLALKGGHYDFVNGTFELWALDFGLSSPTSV
Assay: Stopped Flow CO2 Hydration Assay
Details: pH 8.3; 20 °C
Description: Inhibition constants of carboxylate inhibitors against F. bidentis CA I were determined by a stopped flow CO2 hydration assay at 20 °C.

Row | Ki | Structure (SMILES)
1 | 77.5 µM | CCCCC(=O)O
2 | 73.2 µM | O=C(O)/C=C\C(=O)O [sodium maleate]
3 | 91 µM | CCC(=O)O
4 | > 10000 µM | CC(=O)C(=O)O [Pyruvate]
5 | 74.1 µM | CC(O)C(=O)O (centres undefined)
6 | 93 µM | O=C(O)C(=O)O
7 | 100 µM | O=C(O)CC(=O)O [sodium malonate]
8 | 92.5 µM | O=C(O)CC(O)C(=O)O (centres undefined)
9 | 51.2 µM | O=C(O)c1c(F)c(F)cc(F)c1F [2,3,5,6-F4-Benzoate]

Row | Structure (SMILES) | Ki
10 | CCCC(=O)O | 82.3 µM
11 | O=C(O)CC(O)(CC(=O)O)C(=O)O [SODIUM CITRATE] | 41.4 µM
12 | O=C(O)c1ccccc1 [SODIUM BENZOATE] | 64.5 µM
13 | O=CO | 97.5 µM
14 | CC(=O)O [sodium acetate] | 95.1 µM
